Target: T1, ScVan1 with ScMnn9 (M-Pol I complex) (Saccharomyces cerevisiae, UniProt P23642)
T1 construct: gene VAN1; separately expressed glycosyltransferase domains (Van1 87-535, Mnn9 93-395) mixed; heterodimer; MBP-His6 tags cleaved by TEV; E. coli BL21(DE3) pLysS; with Mannan polymerase complexes subunit MNN9
Experiment: FACE gel of ANTS-labelled products
Format: biochemical
Conditions: donor 1.2 mM; acceptor 10 mM α-1,6-mannobiose; 10 mM MnCl2; 20 mM HEPES pH 7.5; 30°C; both subunits wild-type

T1 sequence (P23642 87-535): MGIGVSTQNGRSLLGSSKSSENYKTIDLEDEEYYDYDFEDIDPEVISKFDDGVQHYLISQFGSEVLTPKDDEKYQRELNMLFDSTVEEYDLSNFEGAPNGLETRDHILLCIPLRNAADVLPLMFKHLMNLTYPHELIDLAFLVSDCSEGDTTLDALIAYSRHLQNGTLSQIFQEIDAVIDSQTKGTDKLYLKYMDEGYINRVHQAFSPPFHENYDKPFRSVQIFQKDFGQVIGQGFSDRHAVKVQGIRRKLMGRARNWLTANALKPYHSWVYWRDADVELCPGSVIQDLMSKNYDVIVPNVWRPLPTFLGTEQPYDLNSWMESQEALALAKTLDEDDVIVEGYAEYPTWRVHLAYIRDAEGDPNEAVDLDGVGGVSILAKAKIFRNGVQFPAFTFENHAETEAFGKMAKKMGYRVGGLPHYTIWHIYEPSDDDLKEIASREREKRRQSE
T1 sequence (P39107 93-395 partner): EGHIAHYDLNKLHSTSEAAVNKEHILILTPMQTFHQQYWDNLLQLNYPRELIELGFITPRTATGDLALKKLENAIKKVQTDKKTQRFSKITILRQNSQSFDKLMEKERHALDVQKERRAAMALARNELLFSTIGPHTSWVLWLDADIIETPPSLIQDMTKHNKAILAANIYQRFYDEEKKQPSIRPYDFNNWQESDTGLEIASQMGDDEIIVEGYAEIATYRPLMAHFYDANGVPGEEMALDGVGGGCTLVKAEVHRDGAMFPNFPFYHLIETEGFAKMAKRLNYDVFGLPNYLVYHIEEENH

## Nc1nc2c(ncn2[C@@H]2O[C@H](COP(=O)(O)OP(=O)(O)O[C@H]3O[C@H](CO)[C@@H](O)[C@H](O)[C@@H]3O)[C@@H](O)[C@H]2O)c(=O)[nH]1 [GDP-Man]
  FACE gel of ANTS-labelled products: ScMnn9, ScVan1, GDP-Man, α-1,6-mannobiose and MnCl2 were incubated

From article PMC3787745, “Yeast Mnn9 is both a priming glycosyltransferase and an allosteric activator of mannan biosynthesis” (Open Biology, 2013)
